Data published in ChEMBL document CHEMBL1208702, “Use of 2-[(18)F]fluoroethylazide for the Staudinger ligation - Preparation and characterisation of GABA(A) receptor binding 4-quinolones” (Bioorg Med Chem Lett, 2010).

Experiment: Displacement of [3H]Ro151788 from GABA-A receptor in Wistar rat cerebellar membrane after 1 hr by liquid scintillation counting
Format: cell membranes, Cerebellum

- Ki: 1.3 nM
SMILES: O=C(NCCCF)c1c[nH]c2ccc(Br)cc2c1=O
